Test results as given in patent publication US20230141600A1, “IMIDAZOPYRAZINE DERIVATIVES” (priority 2020, published 2023).
Counter-ions that a name gives are not always drawn. Like-named read-outs stand apart in the source and are kept apart here.

System: Acinetobacter baumannii ATCC17961
Assay: 90% growth inhibitory concentration (IC90) determination, antimicrobial susceptibility testing
Assay type: cell-based
Conditions: Acinetobacter baumannii, ATCC17961, 16 h, read-out: ATCC 17961 IC90
In short: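 Twofold serial dilutions (e.g. 50 to 0.097 μM final) in Iso-Sensitest broth, inoculated at ~5×10^5 CFU/ml and incubated at 35±2 °C for 16 h with OD600 read every minute. IC90 taken from growth inhibition during the logarithmic phase.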

[1] = 90% growth inhibition, Iso-Sensitest broth, OD 600 nm over 16 h, 35±2° C.

Compound | IC90 [1] | IC90
C[N+](C)(C)CC(=O)N[C@H]1C[C@@H](NC(=O)c2ccc(Nc3nccn4c(-c5c[nH]nc5C(F)(F)F)cnc34)cc2Cl)C1 [Example 61, [2-[[3-[[2-Chloro-4-[[3-[3-(trifluoromethyl)-1H-pyrazol-4-yl]imidazo[1,2-a]pyrazin-8-yl]amino]benzoyl]amino]cyclobutyl]amino]-2-oxo-ethyl]-trimethyl-ammonium Formate] | – | 478 nM
COc1ccc(-c2cnc3c(Nc4ccc(C(=O)N[C@H]5C[C@@H](NC(=O)C[N+](C)(C)C)C5)c(Cl)c4)nccn23)c(F)c1F [Example 59, [2-[[3-[[2-Chloro-4-[[3-(2,3-difluoro-4-methoxy-phenyl)imidazo[1,2-a]pyrazin-8-yl]amino]benzoyl]amino]cyclobutyl]amino]-2-oxo-ethyl]-trimethyl-ammonium formate] | 41 nM | –
CCc1cc(Nc2nccn3c(-c4cn(CC(F)F)nc4C(F)(F)F)cnc23)ccc1C(=O)NCCCCC[N+](C)(CC(=O)O)CC1CNC1 (stereo not shown) [Example 8, azetidin-3-ylmethyl-(carboxymethyl)-[5-[[4-[[3-[1-(2,2-difluoroethyl)-3-(trifluoromethyl)pyrazol-4-yl]imidazo[1,2-a]pyrazin-8-yl]amino]-2-ethyl-benzoyl]amino]pentyl]-methyl-ammonium Formate] | 600 nM | –
CCc1cc(Nc2nccn3c(-c4ccc(OC(F)F)c(F)c4F)cnc23)ccc1C(=O)NCC1CC[N+](C)(CC2CNC2)CC1 (stereo not shown) [Example 87, N-[[1-(azetidin-3-ylmethyl)-1-methyl-piperidin-1-ium-4-yl]methyl]-4-[[3-[4-(difluoromethoxy)-2,3-difluoro-phenyl]imidazo[1,2-a]pyrazin-8-yl]amino]-2-ethyl-benzamide Diformate] | – | 318 nM
CCc1cc(Nc2nccn3c(-c4ccc(OC(F)F)c(F)c4F)cnc23)ccc1C(=O)NCCC1C[N+](C)(CC2CNC2)C1 (stereo not shown) [Example 90, N-[2-[1-(azetidin-3-ylmethyl)-1-methyl-azetidin-1-ium-3-yl]ethyl]-4-[[3-[4-(difluoromethoxy)-2,3-difluoro-phenyl]imidazo[1,2-a]pyrazin-8-yl]amino]-2-ethyl-benzamide Diformate] | – | 320 nM
COc1ccc(-c2cnc3c(Nc4ccc(C(=O)N[C@H]5CCN(C(=O)C[N+](C)(C)C)C5)c(C)c4)nccn23)c(F)c1F [Example 67, (S)-2-(3-(4-((3-(2,3-Difluoro-4-methoxyphenyl)imidazo[1,2-a]pyrazin-8-yl)amino)-2-methylbenzamido)pyrrolidin-1-yl)-N,N,N-trimethyl-2-oxoethan-1-aminium Chloride] | 44.8 nM | –
COc1ccc(-c2cnc3c(Nc4cc(C)c(C(=O)NCCOCC[N+](C)(C)C)c(F)c4)nccn23)c(F)c1F [Example 18, 2-(2-(4-((3-(2,3-Difluoro-4-methoxyphenyl)imidazo[1,2-a]pyrazin-8-yl)amino)-2-fluoro-6-methylbenzamido)ethoxy)-N,N,N-trimethylethan-1-aminium Hydrogen Carbonate] | 336 nM | –

Continued, in another order:

IC90 [1] | Compound | IC90
127 nM | CCc1cc(Nc2nccn3c(-c4ccc(OC(F)F)c(F)c4F)cnc23)ccc1C(=O)N1CCN(C(=O)C2CC[N+](C)(CCN)CC2)CC1 (stereo not shown) [Example 83, [4-[1-(2-aminoethyl)-1-methyl-piperidin-1-ium-4-carbonyl]piperazin-1-yl]-[4-[[3-[4-(difluoromethoxy)-2,3-difluoro-phenyl]imidazo[1,2-a]pyrazin-8-yl]amino]-2-ethyl-phenyl]methanone bis(2,2,2-trifluoroacetate)] | –
350 nM | CCc1cc(Nc2nccn3c(-c4ccc(OC)c(F)c4F)cnc23)ccc1C(=O)NCC1CC[N+](C)(CC2CNC2)CC1 (stereo not shown) [Example 134, N-[[1-(Azetidin-3-ylmethyl)-1-methyl-piperidin-1-ium-4-yl]methyl]-4-[[3-(2,3-difluoro-4-methoxy-phenyl)imidazo[1,2-a]pyrazin-8-yl]amino]-2-ethyl-benzamide; 2,2,2-trifluoroacetate bis(2,2,2-trifluoroacetate)] | –
3830 nM | CCc1cc(Nc2nccn3c(-c4cn(CC#N)nc4C(F)(F)F)cnc23)ccc1C(=O)NCCCCC[N+](C)(CC(=O)O)CC1CNC1 (stereo not shown) [Example 109, Azetidin-3-ylmethyl-(carboxymethyl)-[5-[[4-[[3-[1-(cyanomethyl)-3-(trifluoromethyl)pyrazol-4-yl]imidazo[1,2-a]pyrazin-8-yl]amino]-2-ethyl-benzoyl]amino]pentyl]-methyl-ammonium Formate] | –
4300 nM | CCc1cc(Nc2nccn3c(-c4cn(CC#N)nc4C(F)(F)F)cnc23)ccc1C(=O)NCCCCC[N+](C)(C)CC(=O)O [Example 110, Carboxymethyl-[5-[[4-[[3-[1-(cyanomethyl)-3-(trifluoromethyl)pyrazol-4-yl]imidazo[1,2-a]pyrazin-8-yl]amino]-2-ethyl-benzoyl]amino]pentyl]-dimethyl-ammonium Formate] | –
1700 nM | CCc1cc(Nc2nccn3c(-c4ccc(OC(F)F)c(F)c4F)cnc23)ccc1C(=O)N1CC[N+](C)(CC2CCNC2)CC1 (stereo not shown) [Example 119, [4-[[3-[4-(Difluoromethoxy)-2,3-difluoro-phenyl]imidazo[1,2-a]pyrazin-8-yl]amino]-2-ethyl-phenyl]-[4-methyl-4-(pyrrolidin-3-ylmethyl)piperazin-4-ium-1-yl]methanone Formate] | –
682 nM | CCc1cc(Nc2nccn3c(-c4ccc(OC)c(F)c4F)cnc23)ccc1C(=O)NC[C@H](NC(=O)C1CC[N+](C)(CC2CNC2)CC1)C(=O)OC (mixture of isomers) [Example 120, Methyl (2S)-2-[[1-(azetidin-3-ylmethyl)-1-methyl-piperidin-1-ium-4-carbonyl]amino]-3-[[4-[[3-(2,3-difluoro-4-methoxy-phenyl)imidazo[1,2-a]pyrazin-8-yl]amino]-2-ethyl-benzoyl]amino]propanoate formate 2,2,2-trifluoroacetate (Mixed Salt)] | –
82.2 nM | CCc1cc(Nc2nccn3c(-c4ccc(OC(F)F)c(F)c4F)cnc23)ccc1C(=O)NCCCCC[N+](C)(C)CC(=O)N1CCNCC1 [Example 79, 5-[[4-[[3-[4-(Difluoromethoxy)-2,3-difluoro-phenyl]imidazo[1,2-a]pyrazin-8-yl]amino]-2-ethyl-benzoyl]amino]pentyl-dimethyl-(2-oxo-2-piperazin-1-yl-ethyl)ammonium bis(2,2,2-trifluoroacetate)] | –
81.1 nM | C[N+]1(CC2CCNC2)CCC(C(=O)N2CCN(C(=O)c3ccc(Nc4nccn5c(-c6ccc(OC(F)F)c(F)c6F)cnc45)cc3Cl)CC2)CC1 (stereo not shown) [Example 116, [2-Chloro-4-[[3-[4-(difluoromethoxy)-2,3-difluoro-phenyl]imidazo[1,2-a]pyrazin-8-yl]amino]phenyl]-[4-[1-methyl-1-(pyrrolidin-3-ylmethyl)piperidin-1-ium-4-carbonyl]piperazin-1-yl]methanone Formate] | –
157 nM | C[N+]1(CC2CCNC2)CCC(C(=O)NCCCNC(=O)c2ccc(Nc3nccn4c(-c5ccc(OC(F)F)c(F)c5F)cnc34)cc2Cl)CC1 (stereo not shown) [Example 117, N-[3-[[2-Chloro-4-[[3-[4-(difluoromethoxy)-2,3-difluoro-phenyl]imidazo[1,2-a]pyrazin-8-yl]amino]benzoyl]amino]propyl]-1-methyl-1-(pyrrolidin-3-ylmethyl)piperidin-1-ium-4-carboxamide Formate] | –
